From US20110009403A1, “2-MORPHOLINYLPURINES AS INHIBITORS OF PI3K” (S*BIO Pte Ltd., priority 2007, published 2011) come the findings set out here.

One assay concerns the target T1, PI3K p110α/p85 (Homo sapiens, UniProt P42336).
T1 construct: made in house
The assay can be described thus: PI3K assay ([γ33P]ATP, PtdIns/PtdSer coated plates). It counts as biochemical. To be noted: 2 μM ATP, 1 hour at RT; read-out: IC50 (PI3Kα). The procedure:
Recombinant PI3K p110α/p85 was prepared in-house. Phosphatidylinositol (PtdIns), phosphotidylserine (PtdSer) and all other unspecified chemicals were purchased from Sigma-Aldrich. [γ^33P]ATP and Optiphase scintillant were obtained from Perkin Elmer.
Assays were performed in a final assay volume of 25 μL in 384-well Maxisorp plates (Nunc). Compounds were tested at 8 concentrations in 3-fold serial dilution, generally starting from 10 μM. Maxisorp plates were coated with 20 μL/well of a 1:1 mixture of PtdIns and PtdSer [0.1 mg/mL each dissolved in chloroform:ethanol (3:7)] and left overnight in a fume hood at room temperature (RT) to dry.
The enzyme reaction was created by pipetting 5 μL/well of compound (in 2.5% DMSO), 10 μL/well of enzyme (0.5 μg/mL p110α+1 μg/mL p85), and 10 μL/well of 5 μM ATP with 5 μCi/mL [γ^33P]ATP in assay buffer (final concentrations: 0.2 μg/mL p110α, 2 μM ATP, […] [γ^33P]ATP in 1× assay buffer: 100 mM Tris-HCl pH 7.0, 200 mM NaCl, 8 mM MgCl2). The reaction was incubated for 1 hour at RT and terminated with 30 μL/well of 50 mM EDTA solution. The plate was then washed twice with TBS, dried, and added with 30 μL/well of scintillant before it was counted in a MicroBeta Trilux.

A further assay addresses mTOR (Homo sapiens, UniProt P42345). The assay can be described thus: mTOR assay (phosphorylation of 4eBP1, [γ33P]-ATP filter plate). It counts as biochemical. To be noted: 10 μM ATP, 1 hour at room temperature. The procedure:
Truncated mTOR kinase and His-tagged 4eBP1 were produced in-house. [γ^33P]-ATP was purchased from Amersham (GE Healthcare). All chemicals, unless otherwise stated, were from Sigma-Aldrich.
Phosphorylation assays were initially performed in a final volume of 20 μL in 384-well polypropylene plate (Greiner). Compounds were typically tested over the range from 100 μM to 0.006 μM, in 8 step dilutions, in duplicate. 10 μL/well of 2× Enzyme-Substrate solution (1.5 μg/mL mTOR, 40 μg/mL 4eBP1 in 1× assay buffer: 10 mM Hepes pH 7.5, 50 mM NaCl and 10 mM MnCl2) were first added to the sample plate containing 1 μL/well of test compound in neat DMSO. The reaction was initiated by adding 10 μL/well of 20 μM ATP solution (final assay concentration 10 μM ATP and 0.4 μCi/well of [γ^33P]-ATP). After 1 hour incubation at room temperature, the reaction was terminated with 40 μL/well of 20 mM EDTA/1 mM ATP solution.
50 μL/well of the stopped reaction mix was then transferred to 384-well MultiScreenHTS-PH filter plate (Millipore) pre-added with 50 μL/well of 1% phosphoric acid. The plate was washed 4 times with 120 μL/well of 0.5% phosphoric acid via vacuum filtration. Finally, 10 μL/well of Optiphase™ SuperMix liquid scintillation cocktail (Perkin Elmer) was added. After minimum 1 hour of incubation, counting was performed in a Wallac MicroBeta TriLux scintillation counter using coincidence counting mode with crosstalk correction.

A value given as a limit tells only on which side of the number the result lay.

T1 sequence (P42336 whole entry): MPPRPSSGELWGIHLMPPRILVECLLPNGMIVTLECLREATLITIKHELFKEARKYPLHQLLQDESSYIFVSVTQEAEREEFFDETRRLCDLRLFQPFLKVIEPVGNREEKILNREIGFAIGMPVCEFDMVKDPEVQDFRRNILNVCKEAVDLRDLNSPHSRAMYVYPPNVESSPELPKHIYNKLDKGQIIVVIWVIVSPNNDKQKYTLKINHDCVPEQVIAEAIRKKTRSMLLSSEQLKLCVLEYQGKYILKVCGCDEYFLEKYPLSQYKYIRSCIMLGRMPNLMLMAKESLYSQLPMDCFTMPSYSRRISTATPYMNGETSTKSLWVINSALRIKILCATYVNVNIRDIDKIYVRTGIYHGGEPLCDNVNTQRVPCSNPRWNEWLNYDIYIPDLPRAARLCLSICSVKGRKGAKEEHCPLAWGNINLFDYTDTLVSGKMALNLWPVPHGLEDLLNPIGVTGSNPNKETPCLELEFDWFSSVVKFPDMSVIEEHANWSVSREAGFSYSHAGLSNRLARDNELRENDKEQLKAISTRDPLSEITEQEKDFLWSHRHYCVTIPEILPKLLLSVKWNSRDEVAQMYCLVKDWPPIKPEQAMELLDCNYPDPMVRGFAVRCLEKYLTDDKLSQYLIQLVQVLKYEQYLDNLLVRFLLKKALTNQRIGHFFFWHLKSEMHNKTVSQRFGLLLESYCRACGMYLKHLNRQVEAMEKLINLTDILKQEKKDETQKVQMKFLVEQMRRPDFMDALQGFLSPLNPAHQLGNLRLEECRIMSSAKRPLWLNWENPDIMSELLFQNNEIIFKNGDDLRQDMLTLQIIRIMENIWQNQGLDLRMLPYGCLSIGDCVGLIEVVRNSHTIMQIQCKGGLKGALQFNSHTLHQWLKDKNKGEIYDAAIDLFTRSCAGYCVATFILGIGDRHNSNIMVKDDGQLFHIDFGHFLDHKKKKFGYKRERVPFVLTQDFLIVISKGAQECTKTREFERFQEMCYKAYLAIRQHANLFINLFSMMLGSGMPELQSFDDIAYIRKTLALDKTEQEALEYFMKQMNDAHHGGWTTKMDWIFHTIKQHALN
T1 sequence (P27986 whole entry partner): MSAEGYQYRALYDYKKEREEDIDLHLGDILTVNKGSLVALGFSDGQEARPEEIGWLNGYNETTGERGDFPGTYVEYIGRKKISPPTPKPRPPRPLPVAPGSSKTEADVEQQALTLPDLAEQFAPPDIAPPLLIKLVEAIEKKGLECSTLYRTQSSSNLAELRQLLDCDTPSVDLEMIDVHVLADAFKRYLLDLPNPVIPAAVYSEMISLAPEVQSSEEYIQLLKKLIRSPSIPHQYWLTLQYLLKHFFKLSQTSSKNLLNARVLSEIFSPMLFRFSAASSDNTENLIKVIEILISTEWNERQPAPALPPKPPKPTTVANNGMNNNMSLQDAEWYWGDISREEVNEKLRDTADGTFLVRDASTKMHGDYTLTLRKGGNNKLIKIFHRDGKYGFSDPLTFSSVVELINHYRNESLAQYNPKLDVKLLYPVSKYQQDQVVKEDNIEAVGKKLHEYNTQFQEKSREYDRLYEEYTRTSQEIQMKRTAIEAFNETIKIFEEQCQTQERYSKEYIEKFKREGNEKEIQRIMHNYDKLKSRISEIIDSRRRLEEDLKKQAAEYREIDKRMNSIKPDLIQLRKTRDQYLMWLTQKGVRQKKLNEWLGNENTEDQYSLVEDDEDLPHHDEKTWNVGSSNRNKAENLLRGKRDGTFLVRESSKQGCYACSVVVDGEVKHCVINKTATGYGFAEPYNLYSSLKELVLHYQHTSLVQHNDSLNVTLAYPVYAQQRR
Sequence of mTOR (P42345 1382-2549 limits assumed): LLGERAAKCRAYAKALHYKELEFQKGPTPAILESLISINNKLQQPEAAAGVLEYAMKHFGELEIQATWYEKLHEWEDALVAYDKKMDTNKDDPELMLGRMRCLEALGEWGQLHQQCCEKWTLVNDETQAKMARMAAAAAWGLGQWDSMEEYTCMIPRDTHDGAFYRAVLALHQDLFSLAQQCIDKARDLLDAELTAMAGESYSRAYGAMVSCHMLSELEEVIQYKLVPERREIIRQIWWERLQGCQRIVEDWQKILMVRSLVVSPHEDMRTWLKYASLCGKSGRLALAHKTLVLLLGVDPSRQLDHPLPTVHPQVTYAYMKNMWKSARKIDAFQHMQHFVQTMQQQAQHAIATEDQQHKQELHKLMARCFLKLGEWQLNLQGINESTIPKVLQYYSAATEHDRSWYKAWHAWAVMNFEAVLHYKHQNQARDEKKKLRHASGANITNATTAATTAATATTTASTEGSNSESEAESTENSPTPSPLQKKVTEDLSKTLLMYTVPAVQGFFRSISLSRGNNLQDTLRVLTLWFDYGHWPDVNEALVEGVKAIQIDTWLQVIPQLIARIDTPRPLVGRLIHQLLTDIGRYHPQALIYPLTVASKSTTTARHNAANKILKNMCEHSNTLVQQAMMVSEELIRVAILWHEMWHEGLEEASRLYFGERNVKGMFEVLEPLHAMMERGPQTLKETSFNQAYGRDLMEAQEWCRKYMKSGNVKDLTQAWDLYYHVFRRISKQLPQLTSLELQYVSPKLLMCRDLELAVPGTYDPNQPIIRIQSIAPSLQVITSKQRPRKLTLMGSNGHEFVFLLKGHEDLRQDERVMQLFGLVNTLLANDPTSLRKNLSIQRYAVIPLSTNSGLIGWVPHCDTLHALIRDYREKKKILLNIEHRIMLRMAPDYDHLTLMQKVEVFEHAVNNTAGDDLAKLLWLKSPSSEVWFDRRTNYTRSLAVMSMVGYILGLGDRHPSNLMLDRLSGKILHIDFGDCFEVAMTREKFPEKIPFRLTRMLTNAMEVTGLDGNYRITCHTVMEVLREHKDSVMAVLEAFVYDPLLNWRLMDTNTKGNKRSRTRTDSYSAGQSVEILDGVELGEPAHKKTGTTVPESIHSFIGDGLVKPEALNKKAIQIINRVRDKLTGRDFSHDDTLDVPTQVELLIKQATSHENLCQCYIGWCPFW

On to `O=[N+]([O-])c1ccc(Cn2cnc3c(-c4cccc(O)c4)nc(N4CCOCC4)nc32)cc1` [Compound 19, 3-[2-Morpholin-4-yl-9-(4-nitro-benzyl)-9H-purin-6-yl]-phenol], for which the concentration for half-maximal inhibition (IC50) at PI3K p110α/p85 and against mTOR was < 1 µM each time. In the case of `O=C(Cn1cnc2c(-c3cccc(O)c3)nc(N3CCOCC3)nc21)NC1CC1` [Compound 84], the half-inhibitory concentration (IC50) at PI3K p110α/p85 is < 1 µM; on mTOR, 1 to 5 µM. For `Nc1cccc(-c2nc(N3CCOCC3)nc3c2ncn3Cc2ccccc2)c1` [Compound 29], the IC50 at PI3K p110α/p85 is > 5 µM; at mTOR, 1 to 5 µM. `Oc1cccc(-c2nc(N3CCOCC3)nc3c2ncn3CCN2CCCC2)c1` [Compound 94, 3-(2-morpholino-9-(2(-pyrrolidin-1-yl)ethyl)-9H-purin-6yl)phenol]: the IC50 on PI3K p110α/p85 is < 1 µM; against mTOR, 1 to 5 µM. The corresponding values for `Oc1cccc(-c2nc(N3CCOCC3)nc3c2ncn3Cc2ccc(C(F)(F)F)cc2)c1` [Compound 30] are 1 to 5 µM and 1 to 5 µM. As to `Oc1cccc(-c2nc(N3CCOCC3)nc3c2ncn3Cc2cccc(OC(F)(F)F)c2)c1` [Compound 12], the IC50 at PI3K p110α/p85 was > 5 µM; at mTOR, 1 to 5 µM. The corresponding values for `CCC(C)n1cnc2c(-c3cccc4[nH]ccc34)nc(N3CCOCC3)nc21` (stereo not shown) [Compound 69] are < 1 µM and < 1 µM. For the compound `CCC(C)n1c(NC(C)C)nc2c(-c3cccc(O)c3)nc(N3CCOCC3)nc21` (stereo not shown) [Compound 123, 3-(9-sec-Butyl-8-isopropylamino-2-morpholin-4-yl-9H-purin-6-yl)-phenol], the IC50 on PI3K p110α/p85 and at mTOR was < 1 µM each time. With `O=C(Cn1cnc2c(-c3cccc(O)c3)nc(N3CCOCC3)nc21)Nc1ccccc1` [Compound 89], the IC50 on PI3K p110α/p85 and at mTOR was < 1 µM each time. `COCCn1cnc2c(-c3cccc(O)c3)nc(N3CCOCC3)nc21` [Compound 11, 3-[9-(2-Methoxy-ethyl)-2-morpholin-4-yl-9H-purin-6-yl]-phenol]: the IC50 at PI3K p110α/p85 and on mTOR was < 1 µM in each case. Take `CC1CN(c2nc(-c3cccc4[nH]ccc34)c3ncn(CC#N)c3n2)CC(C)O1` (stereo not shown) [Compound 81]: the IC50 at PI3K p110α/p85 and against mTOR was > 5 µM each time. As to `CC(c1ccccc1)n1cnc2c(-c3cccc4[nH]ccc34)nc(N3CCOCC3)nc21` (stereo not shown) [Compound 77], the half-maximal inhibitory concentration (IC50) is > 5 µM at PI3K p110α/p85 and < 1 µM on mTOR. For the compound `Oc1cccc(-c2nc(N3CCOCC3)nc3c2ncn3Cc2ccc3ccccc3c2)c1` [Compound 46], the IC50 against mTOR was < 1 µM.

As for `CCOC(=O)Cn1cnc2c(-c3cccc(O)c3)nc(N3CCOCC3)nc21` [Compound 74, ethyl-2-(6-(3-hydroxyphenyl)-2-morpholino-9H-purin-9-yl)acetate], the 50% inhibitory concentration (IC50) on mTOR is < 1 µM. Take `CC(C)(C)OC(=O)N1CCC(n2cnc3c(-c4cccc(O)c4)nc(N4CCOCC4)nc32)CC1` [Compound 86]: the IC50 on PI3K p110α/p85 was < 1 µM.

Turning to `CCOC(=O)CCn1cnc2c(-c3cccc(O)c3)nc(N3CCOCC3)nc21` [Compound 24], the half-inhibitory concentration (IC50) against mTOR is < 1 µM. Regarding `CC(C)C(C)n1cnc2c(-c3cccc(O)c3)nc(N3CCOCC3)nc21` (stereo not shown) [Compound 100], the concentration for half-maximal inhibition (IC50) against mTOR is < 1 µM. For the compound `CC(C)(C)OC(=O)N1CCC(n2cnc3c(-c4cccc(O)c4)nc(N4CCOCC4)nc32)CC1` [Compound 71], the half-maximal inhibitory concentration (IC50) against mTOR was < 1 µM. `CCOC(=O)CCn1cnc2c(-c3ccc4cc[nH]c4c3)nc(N3CCOCC3)nc21` [Compound 25]: the IC50 against mTOR lay in the range of 1 to 5 µM. Consider `Oc1cccc(-c2nc(N3CCOCC3)nc3[nH]cnc23)c1` [Compound 48], for which the half-maximal inhibitory concentration (IC50) against mTOR lay in the range of 1 to 5 µM. In the case of `Oc1cccc(-c2nc(N3CCOCC3)nc3c2ncn3C2CCNCC2)c1` [Compound 85], the IC50 at mTOR was < 1 µM.

Regarding `Oc1cccc(-c2nc(N3CCOCC3)nc3c2ncn3C/C=C/c2ccccc2)c1` [Compound 45], the half-maximal inhibitory concentration (IC50) on mTOR was < 1 µM.
